Laboratory results published in ChEMBL document CHEMBL3616426 (Eur J Med Chem, 2015).
Active and inactive are the calls of the source. No cut-off for these calls is given here.

What was measured:
[1] = tested on: Rattus norvegicus; assay: Antiosteoporotic activity in ovariectomized Sprague-Dawley rat assessed as serum osteocalcin level at 10 ug/kg, po qd at 18th week by enzyme immunoassay (reference value: 1118.9 +/- 37.77 ng/ml); type: functional
[2] = target: T1, Estrogen receptor (Homo sapiens) (UniProt P03372); assay: Antagonist activity at ERalpha (301 to 553 amino acid residues) (unknown origin) assessed as inhibition of E2 induced interaction with SRC1 after 24 hrs by yeast-two-hybrid assay; parameters: concentration or dose not given beside the values
T1 sequence (whole entry): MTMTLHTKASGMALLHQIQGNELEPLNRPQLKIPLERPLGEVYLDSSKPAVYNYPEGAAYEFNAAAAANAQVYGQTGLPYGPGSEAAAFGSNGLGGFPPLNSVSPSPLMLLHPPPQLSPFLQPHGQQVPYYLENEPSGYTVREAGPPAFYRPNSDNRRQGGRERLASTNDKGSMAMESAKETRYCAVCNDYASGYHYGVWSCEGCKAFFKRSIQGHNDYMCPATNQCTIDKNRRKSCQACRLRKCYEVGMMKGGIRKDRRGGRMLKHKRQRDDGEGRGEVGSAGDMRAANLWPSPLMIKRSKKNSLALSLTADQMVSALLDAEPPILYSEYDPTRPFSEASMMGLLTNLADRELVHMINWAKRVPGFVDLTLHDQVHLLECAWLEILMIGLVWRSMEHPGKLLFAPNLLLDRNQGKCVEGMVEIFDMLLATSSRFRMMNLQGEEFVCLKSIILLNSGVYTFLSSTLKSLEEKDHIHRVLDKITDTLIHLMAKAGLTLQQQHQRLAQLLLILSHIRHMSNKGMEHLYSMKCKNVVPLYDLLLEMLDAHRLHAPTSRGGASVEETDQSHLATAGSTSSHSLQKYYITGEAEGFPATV

[3] = tested on: Rattus norvegicus; assay: Antiosteoporotic activity in ovariectomized Sprague-Dawley rat assessed as serum osteocalcin level at 3 ug/kg, po qd at 18th week by enzyme immunoassay (reference value: 1118.9 +/- 37.77 ng/ml); type: functional
[4] = tested on: Rattus norvegicus; assay: Antiosteoporotic activity in ovariectomized Sprague-Dawley rat assessed as trabecular thickness at 3 ug/kg, po qd at 18th week by micro-CT analysis (reference value: 0.103 +/- 0.0044 millimeter); type: functional, Trabecula
[5] = tested on: Rattus norvegicus; assay: Antiosteoporotic activity in ovariectomized Sprague-Dawley rat assessed as serum osteocalcin level at 10 ug/kg, po qd at 12th week by enzyme immunoassay (reference value: 1055.8 +/- 14 ng/ml); type: functional
[6] = tested on: Rattus norvegicus; assay: Antiosteoporotic activity in ovariectomized Sprague-Dawley rat assessed as prevention of bone mineral density loss at 1 to 3 ug/kg, po qd measured at 6th to 18th week by micro-CT analysis relative to OVX rat; type: functional, organism-based
[7] = tested on: Mus musculus; assay: Acute toxicity in ICR mouse assessed as survival at 5000 ug/kg, po after 2 weeks; type: organism-based; settings: in vivo, 5 mg/kg, 336 h
[8] = tested on: Rattus norvegicus; assay: Antiosteoporotic activity in ovariectomized Sprague-Dawley rat assessed as bone volume /tissue volume at 3 ug/kg, po qd at 6th week by micro-CT analysis (reference value: 41.33 +/- 5.04%); type: functional
[9] = tested on: Rattus norvegicus; assay: Antiosteoporotic activity in ovariectomized Sprague-Dawley rat assessed as decrease in serum osteocalcin level at 10 ug/kg, po qd at 18th week by enzyme immunoassay relative to SHAM control; type: functional, organism-based
[10] = tested on: Rattus norvegicus; assay: Antiosteoporotic activity in ovariectomized Sprague-Dawley rat assessed as trabecular thickness at 10 ug/kg, po qd at 18th week by micro-CT analysis (reference value: 0.103 +/- 0.0044 millimeter); type: functional, Trabecula
[11] = target: Estrogen receptor beta (Homo sapiens, UniProt Q92731); assay: Agonist activity at ERbeta (248 to 510 amino acid residues) (unknown origin) assessed as induction of interaction with SRC1 after 24 hrs by yeast two-hybrid assay
[12] = tested on: Rattus norvegicus; assay: Antiosteoporotic activity in ovariectomized Sprague-Dawley rat assessed as bone volume /tissue volume at 10 ug/kg, po qd at 18th week by micro-CT analysis (reference value: 27.36 +/- 1.99%); type: functional
[13] = tested on: Rattus norvegicus; assay: Antiosteoporotic activity in ovariectomized Sprague-Dawley rat assessed as trabecular thickness at 1 ug/kg, po qd at 6th week by micro-CT analysis (reference value: 0.086 +/- 0.0069 millimeter); type: functional, Trabecula
[14] = tested on: Rattus norvegicus; assay: Antiosteoporotic activity in ovariectomized Sprague-Dawley rat assessed as trabecular thickness at 10 ug/kg, po qd at 6th week by micro-CT analysis (reference value: 0.086 +/- 0.0069 millimeter); type: functional, Trabecula
[15] = tested on: Rattus norvegicus; assay: Antiosteoporotic activity in ovariectomized Sprague-Dawley rat assessed as trabecular separation at 3 ug/kg, po qd at 12th week by micro-CT analysis (reference value: 0.146 +/- 0.010 millimeter); type: functional, Trabecula
[16] = tested on: Rattus norvegicus; assay: Antiosteoporotic activity in ovariectomized Sprague-Dawley rat assessed as bone volume /tissue volume at 1 ug/kg, po qd at 6th week by micro-CT analysis (reference value: 41.33 +/- 5.04%); type: functional
[17] = tested on: Rattus norvegicus; assay: Antiosteoporotic activity in ovariectomized Sprague-Dawley rat assessed as trabecular separation at 10 ug/kg, po qd at 6th week by micro-CT analysis (reference value: 0.116 +/- 0.010 millimeter); type: functional, Trabecula
[18] = tested on: Rattus norvegicus; assay: Antiosteoporotic activity in ovariectomized Sprague-Dawley rat assessed as trabecular thickness at 1 ug/kg, po qd at 12th week by micro-CT analysis (reference value: 0.070 +/- 0.0063 millimeter); type: functional, Trabecula
[19] = tested on: Rattus norvegicus; assay: Antiosteoporotic activity in ovariectomized Sprague-Dawley rat assessed as bone volume /tissue volume at 1 ug/kg, po qd at 12th week by micro-CT analysis (reference value: 31.61 +/- 2.39%); type: functional
[20] = tested on: Rattus norvegicus; assay: Antiosteoporotic activity in ovariectomized Sprague-Dawley rat assessed as serum osteocalcin level at 1 ug/kg, po qd at 18th week by enzyme immunoassay (reference value: 1118.9 +/- 37.77 ng/ml); type: functional
[21] = tested on: Rattus norvegicus; assay: Antiosteoporotic activity in ovariectomized Sprague-Dawley rat assessed as trabecular thickness at 3 ug/kg, po qd at 12th week by micro-CT analysis (reference value: 0.070 +/- 0.0063 millimeter); type: functional, Trabecula
[22] = tested on: Rattus norvegicus; assay: Antiosteoporotic activity in ovariectomized Sprague-Dawley rat assessed as bone volume /tissue volume at 1 ug/kg, po qd at 18th week by micro-CT analysis (reference value: 27.36 +/- 1.99%); type: functional
[23] = tested on: Rattus norvegicus; assay: Antiosteoporotic activity in ovariectomized Sprague-Dawley rat assessed as decrease in serum osteocalcin level at 3 ug/kg, po qd at 18th week by enzyme immunoassay relative to SHAM control; type: functional, organism-based
[24] = tested on: Rattus norvegicus; assay: Antiosteoporotic activity in ovariectomized Sprague-Dawley rat assessed as bone mineral density recovery at 10 ug/kg, po qd measured at 18th week by micro-CT analysis relative to SHAM control; type: functional
[25] = tested on: Rattus norvegicus; assay: Antiosteoporotic activity in ovariectomized Sprague-Dawley rat assessed as trabecular separation at 3 ug/kg, po qd at 18th week by micro-CT analysis (reference value: 0.234 +/- 0.021 millimeter); type: functional, Trabecula

Chain of Estrogen receptor beta (Q92731 whole entry, the tested form may be a part): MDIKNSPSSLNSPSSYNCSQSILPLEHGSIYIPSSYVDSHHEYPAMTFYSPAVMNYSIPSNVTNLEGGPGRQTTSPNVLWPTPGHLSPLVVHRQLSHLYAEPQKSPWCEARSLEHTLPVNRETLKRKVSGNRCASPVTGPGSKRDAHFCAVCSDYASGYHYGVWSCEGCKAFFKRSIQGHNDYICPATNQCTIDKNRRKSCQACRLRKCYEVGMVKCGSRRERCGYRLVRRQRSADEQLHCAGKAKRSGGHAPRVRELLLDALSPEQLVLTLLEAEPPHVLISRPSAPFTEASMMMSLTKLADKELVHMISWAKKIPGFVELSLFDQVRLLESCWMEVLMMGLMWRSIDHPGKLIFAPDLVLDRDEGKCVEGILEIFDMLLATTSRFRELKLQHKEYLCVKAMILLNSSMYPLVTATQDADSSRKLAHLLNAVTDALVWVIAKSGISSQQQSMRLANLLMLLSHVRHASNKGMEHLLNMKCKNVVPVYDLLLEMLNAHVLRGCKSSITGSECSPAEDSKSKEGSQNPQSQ

SMILES: O=C1c2cc(O)cc(O)c2[C@@H](c2ccc(O)cc2)[C@@H]1c1cc(O)cc(O)c1 [ISOPAUCIFLORAL F]
- Activity [1]: 702.2 ng/mL
- Activity [2]: 9.45%
- Activity [3]: 713.24 ng/mL
- Activity [4]: 0.102 mm
- Activity [5]: 1156.07 ng/mL
- Activity [6]: inactive
- Activity [7]: Non-toxic
- Activity [8]: 52.56%
- Activity [9]: Active
- Activity [10]: 0.212 mm
- EC50 [11]: 47 µM
- Activity [12]: 66.42%
- Activity [13]: 0.083 mm
- Activity [14]: 0.082 mm
- Activity [15]: 0.173 mm
- Activity [16]: 40.38%
- Activity [17]: 0.118 mm
- Activity [18]: 0.086 mm
- Activity [19]: 31.46%
- Activity [20]: 812.1 ng/mL
- Activity [21]: 0.085 mm
- Activity [22]: 35.56%
- Activity [23]: Active
- Activity [24]: 90%
- Activity [25]: 0.183 mm
